Experiments:
Assay type in all cases: toxicity, cell-based
[1] = system: HEK-293T; experiment: Incucyte cell viability with HEK293T; details: human, 10 µM, compound concentration 10 uM
[2] = system: Fibroblast; experiment: Incucyte cell viability with human fibroblast; details: 10 µM, compound concentration 10 uM
[3] = system: U2OS; experiment: Incucyte cell viability with U2OS; details: human, 10 µM, compound concentration 10 uM
[4] = 0 h, replicate number 1, timepoint 0 hours
[5] = 0 h, replicate number 2, timepoint 0 hours
[6] = 6 h, replicate number 1, timepoint 6 hours
[7] = 6 h, replicate number 2, timepoint 6 hours
[8] = 12 h, replicate number 1, timepoint 12 hours
[9] = 12 h, replicate number 2, timepoint 12 hours
[10] = 18 h, replicate number 1, timepoint 18 hours
[11] = 18 h, replicate number 2, timepoint 18 hours
[12] = 24 h, replicate number 1, timepoint 24 hours
[13] = 24 h, replicate number 2, timepoint 24 hours
Further: filed as whole numbers so only -1 and 0 and 1 occur.

Row | Compound | Growth Rate [1, 4] | Growth Rate [1, 6] | Growth Rate [1, 8] | Growth Rate [1, 10] | Growth Rate [1, 12] | Growth Rate [2, 4] | Growth Rate [2, 6] | Growth Rate [2, 8] | Growth Rate [2, 10] | Growth Rate [2, 12] | Growth Rate [3, 4] | Growth Rate [3, 6] | Growth Rate [3, 8] | Growth Rate [3, 10] | Growth Rate [3, 11] | Growth Rate [3, 12] | Growth Rate [3, 13] | Growth Rate [2, 13] | Growth Rate [3, 7] | Growth Rate [2, 7] | other results
1 | CCCCc1nc2ccc(NC(=O)NC3CCCCC3)cc2n1Cc1ccc(-c2ccccc2C(=O)O)cc1 | 1 | 0 | 0 | 0 | 0 | 0 | 1 | 0 | 1 | 1 | 0 | 0 | 0 | 0 | 1 | 0 | 1 | – | – | – | Growth Rate [1, 5]: 0; Growth Rate [1, 7]: 1; Growth Rate [1, 9]: 1; Growth Rate [1, 11]: 1; Growth Rate [3, 9]: 1
2 | CCOC(=O)c1cc(C#N)c(N2CCC(C(=O)NS(=O)(=O)Cc3ccccc3)CC2)nc1C | 1 | 0 | 0 | 0 | 0 | 0 | 0 | 0 | 0 | 1 | – | 1 | 0 | 0 | 1 | 0 | 1 | 0 | 0 | – | Growth Rate [1, 5]: 0; Growth Rate [1, 7]: 1; Growth Rate [1, 13]: 1; Growth Rate [3, 5]: 1; Growth Rate [3, 9]: 1
3 | C=CCN1C[C@H](C)N([C@H](c2ccc(C(=O)N(CC)CC)cc2)c2cccc(O)c2)C[C@H]1C | 1 | 0 | 0 | 0 | 0 | 0 | 0 | 0 | 0 | 1 | 0 | – | – | 1 | – | 1 | – | 0 | 1 | – | Growth Rate [1, 5]: 0; Growth Rate [3, 9]: 1
4 | C[C@H](CO)Nc1nc(SCc2cccc(Cl)c2F)nc2[nH]c(=O)sc12 | 0 | 1 | 1 | 1 | 1 | 0 | 1 | 1 | 1 | 1 | – | 1 | 0 | 0 | – | 1 | 0 | – | 0 | 0 | Growth Rate [2, 11]: 0
5 | CCNC(=O)c1cc2c(N3CCOC[C@@H]3C)ccnc2[nH]1 | 1 | 0 | 0 | 0 | 0 | 0 | 0 | 1 | 1 | 1 | 1 | 1 | 0 | 0 | – | 0 | – | 0 | 0 | 1 | Growth Rate [1, 5]: 0; Growth Rate [2, 9]: 0; Growth Rate [2, 11]: 0
6 | N#Cc1c(N)nc(SCC(N)=O)c(C#N)c1-c1ccc(OCC2CC2)cc1 | 0 | 1 | 1 | 0 | 0 | 0 | – | – | – | 1 | 0 | – | 1 | 1 | – | 1 | 0 | – | 0 | 0 | Growth Rate [1, 9]: 0; Growth Rate [2, 9]: 1; Growth Rate [2, 11]: 1
7 | CCCCN(CCCC)C(=O)CN1C[C@@H](c2ccc3c(c2)OCO3)[C@H](C(=O)O)[C@H]1c1ccc(OC)cc1 | 0 | 1 | 1 | 1 | 1 | 0 | – | – | 1 | 1 | – | 0 | 0 | 0 | – | 0 | – | 0 | – | 0 | Growth Rate [1, 11]: 0; Growth Rate [1, 13]: 0; Growth Rate [2, 9]: 1
8 | CCN(CC)CCCCC1CCN(CC(=O)N2c3ccccc3C(=O)Nc3cccnc32)CC1 | 0 | 1 | 1 | 1 | 1 | 0 | – | 1 | 1 | 1 | 0 | – | 1 | 1 | 0 | 1 | 0 | – | 0 | – | Growth Rate [2, 5]: 1
9 | O=C(NCc1ccc(F)cc1)C1CCN(S(=O)(=O)c2cc(Cl)cc(Cl)c2)CC1 | 0 | 1 | 1 | 0 | 0 | 0 | – | – | – | 1 | 0 | – | 1 | 0 | 1 | 0 | 1 | – | 0 | 1 | Growth Rate [1, 9]: 0; Growth Rate [2, 9]: 1; Growth Rate [2, 11]: 1; Growth Rate [3, 9]: 0
10 | CCCCN(CCCC)C(=O)CN1C[C@@H](c2cc(OC)c3c(c2)OCO3)[C@H](C(=O)O)[C@H]1CC(C)(C)CCC.Cl | 0 | 0 | 0 | 0 | 0 | – | 0 | 0 | 0 | 0 | – | – | 0 | 0 | 1 | 0 | 1 | 1 | 0 | – | Growth Rate [2, 5]: 0; Growth Rate [2, 9]: 1; Growth Rate [2, 11]: 1

Source: ChEMBL document CHEMBL4689842, “EUbOPEN Chemogenomics Library wave 1” (2021)
